Results from ChEMBL document CHEMBL5131474, “Resveratrol inhibited hepatocyte apoptosis and alleviated liver fibrosis through miR-190a-5p /HGF axis” (2022).
Active and inactive are the calls of the source. The calls are words filed in the database; no cut-off is given here.

Assays:
Hepatocyte [1] = test: Inhibition of TGF-beta1 induced apoptosis in C57/B6J mouse primary hepatocytes assessed as live cells at 10 uM in presence of miR-190a-5p inhibitor by Annexin-V-FITC-H and PI staining based flow cytometry analysis (reference value: 61.65 %); assay type: functional; set-up: scale not given: the % may be the effect or the level left
Hepatocyte [2] = test: Inhibition of TGF-beta1 induced apoptosis in C57/B6J mouse primary hepatocytes assessed as early apoptotic cells at 10 uM in presence of miR-190a-5p inhibitor by Annexin-V-FITC-H and PI staining based flow cytometry analysis (reference value: 18.90 %); assay type: functional; set-up: scale not given: the % may be the effect or the level left
Hepatocyte [3] = test: Inhibition of TGF-beta1 induced apoptosis in C57/B6J mouse primary hepatocytes assessed as late apoptotic cells at 10 uM in presence of miR-190a-5p inhibitor by Annexin-V-FITC-H and PI staining based flow cytometry analysis (reference value: 13.96 %); assay type: functional; set-up: scale not given: the % may be the effect or the level left
Hepatocyte [4] = test: Inhibition of TGF-beta1 induced apoptosis in C57/B6J mouse primary hepatocytes assessed as dead cells at 10 uM in presence of miR-190a-5p inhibitor by Annexin-V-FITC-H and PI staining based flow cytometry analysis (reference value: 5.49 %); assay type: functional; set-up: scale not given: the % may be the effect or the level left
Hepatocyte [5] = test: Induction of apoptosis in TGF-beta1-stimulated C57/B6J mouse primary hepatocytes assessed as reversal of miR-190a-5p inhibitor induced increase in Bcl-2 expression at 10 uM by Western blot analysis; assay type: functional, cell-based
Hepatocyte [6] = test: Induction of apoptosis in TGF-beta1-stimulated C57/B6J mouse primary hepatocytes assessed as reversal of miR-190a-5p inhibitor induced decrease in cleaved-caspase 3 expression at 10 uM by Western blot analysis; assay type: functional, cell-based
Hepatocyte [7] = test: Downregulation of TGF-beta1 and miR-190a-5p inhibitor induced HGF mRNA expression in C57/B6J mouse primary hepatocytes at 10 uM by qRT-PCR analysis; assay type: functional, cell-based
Hepatocyte [8] = test: Downregulation of TGF-beta1 and miR-190a-5p inhibitor induced HGF protein expression C57/B6J mouse primary hepatocytes at 10 uM by Western blot analysis; assay type: functional, cell-based
Hepatocyte [9] = test: Inhibition of TGF-beta1 induced apoptosis in C57/B6J mouse primary hepatocytes assessed as live cells by Annexin-V-FITC-H and PI staining based flow cytometry analysis (reference value: 64.40 %); assay type: functional; set-up: scale not given: the % may be the effect or the level left
Hepatocyte [10] = test: Downregulation of miR-190a-5p expression in TGF-beta induced C57/B6J mouse primary hepatocytes at 10 to 50 uM incubated for 4 hrs by qRT-PCR analysis; assay type: functional, cell-based; details: dose 10-50 µM
HepG2 = test: Downregulation of miR-190a-5p expression in TGF-beta induced human HepG2 cells at 10 to 50 uM incubated for 4 hrs by qRT-PCR analysis; assay type: functional, cell-based; details: dose 10-50 µM
Hepatocyte [11] = test: Inhibition of TGF-beta1 induced apoptosis in C57/B6J mouse primary hepatocytes assessed as live cells at 10 uM by Annexin-V-FITC-H and PI staining based flow cytometry analysis (reference value: 66.08 %); assay type: functional; set-up: scale not given: the % may be the effect or the level left
Hepatocyte [12] = test: Inhibition of TGF-beta1 induced apoptosis in C57/B6J mouse primary hepatocytes assessed as early apoptotic cells at 10 uM by Annexin-V-FITC-H and PI staining based flow cytometry analysis (reference value: 18.71 %); assay type: functional; set-up: scale not given: the % may be the effect or the level left
Hepatocyte [13] = test: Inhibition of TGF-beta1 induced apoptosis in C57/B6J mouse primary hepatocytes assessed as late apoptotic cells at 10 uM by Annexin-V-FITC-H and PI staining based flow cytometry analysis (reference value: 12.12 %); assay type: functional; set-up: scale not given: the % may be the effect or the level left
Hepatocyte [14] = test: Inhibition of TGF-beta1 induced apoptosis in C57/B6J mouse primary hepatocytes assessed as dead cells at 10 uM by Annexin-V-FITC-H and PI staining based flow cytometry analysis (reference value: 3.09 %); assay type: functional; set-up: scale not given: the % may be the effect or the level left
Hepatocyte [15] = test: Inhibition of TGF-beta1 induced apoptosis in C57/B6J mouse primary hepatocytes assessed as live cells at 25 uM by Annexin-V-FITC-H and PI staining based flow cytometry analysis (reference value: 66.08 %); assay type: functional; set-up: scale not given: the % may be the effect or the level left
Hepatocyte [16] = test: Inhibition of TGF-beta1 induced apoptosis in C57/B6J mouse primary hepatocytes assessed as early apoptotic cells at 25 uM by Annexin-V-FITC-H and PI staining based flow cytometry analysis (reference value: 18.71 %); assay type: functional; set-up: scale not given: the % may be the effect or the level left
Hepatocyte [17] = test: Inhibition of TGF-beta1 induced apoptosis in C57/B6J mouse primary hepatocytes assessed as late apoptotic cells at 25 uM by Annexin-V-FITC-H and PI staining based flow cytometry analysis (reference value: 12.12 %); assay type: functional; set-up: scale not given: the % may be the effect or the level left
Hepatocyte [18] = test: Inhibition of TGF-beta1 induced apoptosis in C57/B6J mouse primary hepatocytes assessed as dead cells at 25 uM by Annexin-V-FITC-H and PI staining based flow cytometry analysis (reference value: 3.09 %); assay type: functional; set-up: scale not given: the % may be the effect or the level left
Hepatocyte [19] = test: Inhibition of TGF-beta1 induced apoptosis in C57/B6J mouse primary hepatocytes assessed as live cells at 50 uM by Annexin-V-FITC-H and PI staining based flow cytometry analysis (reference value: 66.08 %); assay type: functional; set-up: scale not given: the % may be the effect or the level left
Hepatocyte [20] = test: Inhibition of TGF-beta1 induced apoptosis in C57/B6J mouse primary hepatocytes assessed as early apoptotic cells at 50 uM by Annexin-V-FITC-H and PI staining based flow cytometry analysis (reference value: 18.71 %); assay type: functional; set-up: scale not given: the % may be the effect or the level left
Hepatocyte [21] = test: Inhibition of TGF-beta1 induced apoptosis in C57/B6J mouse primary hepatocytes assessed as late apoptotic cells at 50 uM by Annexin-V-FITC-H and PI staining based flow cytometry analysis (reference value: 12.12 %); assay type: functional; set-up: scale not given: the % may be the effect or the level left
Hepatocyte [22] = test: Inhibition of TGF-beta1 induced apoptosis in C57/B6J mouse primary hepatocytes assessed as dead cells at 50 uM by Annexin-V-FITC-H and PI staining based flow cytometry analysis (reference value: 3.09 %); assay type: functional; set-up: scale not given: the % may be the effect or the level left
Hepatocyte [23] = test: Inhibition of TGF-beta1 induced apoptosis in C57/B6J mouse primary hepatocytes assessed as increase in Bcl-2 expression at 10 to 50 uM by Western blot analysis; assay type: functional, cell-based; details: dose 10-50 µM
Hepatocyte [24] = test: Inhibition of TGF-beta1 induced apoptosis in C57/B6J mouse primary hepatocytes assessed as decrease in cleaved-caspase-3 expression at 10 to 50 uM by Western blot analysis; assay type: functional, cell-based; details: dose 10-50 µM
Hepatocyte [25] = test: Inhibition of TGF-beta1 induced apoptosis in C57/B6J mouse primary hepatocytes assessed as early apoptotic cells by Annexin-V-FITC-H and PI staining based flow cytometry analysis (reference value: 19.89 %); assay type: functional; set-up: scale not given: the % may be the effect or the level left
Hepatocyte [26] = test: Inhibition of TGF-beta1 induced apoptosis in C57/B6J mouse primary hepatocytes assessed as late apoptotic cells by Annexin-V-FITC-H and PI staining based flow cytometry analysis (reference value: 12.03 %); assay type: functional; set-up: scale not given: the % may be the effect or the level left
Hepatocyte [27] = test: Inhibition of TGF-beta1 induced apoptosis in C57/B6J mouse primary hepatocytes assessed as dead cells by Annexin-V-FITC-H and PI staining based flow cytometry analysis (reference value: 3.68 %); assay type: functional; set-up: scale not given: the % may be the effect or the level left
Hepatocyte [28] = test: Inhibition of TGF-beta1 induced apoptosis in C57/B6J mouse primary hepatocytes assessed as live cells in presence of miR-190a-5p mimic by Annexin-V-FITC-H and PI staining based flow cytometry analysis (reference value: 64.40 %); assay type: functional; set-up: scale not given: the % may be the effect or the level left
Hepatocyte [29] = test: Inhibition of TGF-beta1 induced apoptosis in C57/B6J mouse primary hepatocytes assessed as early apoptotic cells in presence of miR-190a-5p mimic by Annexin-V-FITC-H and PI staining based flow cytometry analysis (reference value: 19.89 %); assay type: functional; set-up: scale not given: the % may be the effect or the level left
Hepatocyte [30] = test: Inhibition of TGF-beta1 induced apoptosis in C57/B6J mouse primary hepatocytes assessed as late apoptotic cells in presence of miR-190a-5p mimic by Annexin-V-FITC-H and PI staining based flow cytometry analysis (reference value: 12.03 %); assay type: functional; set-up: scale not given: the % may be the effect or the level left
Hepatocyte [31] = test: Inhibition of TGF-beta1 induced apoptosis in C57/B6J mouse primary hepatocytes assessed as dead cells in presence of miR-190a-5p mimic by Annexin-V-FITC-H and PI staining based flow cytometry analysis (reference value: 3.68 %); assay type: functional; set-up: scale not given: the % may be the effect or the level left
Mus musculus [32] = test: Antifibrotic activity in CCL-4 induced liver fibrosis C57/B6J mouse model assessed as reduction in disorganized and interlaced fibers at 100 mg/kg/day, ip measured after 72 hrs post last dose by HE/Sirus red/TUNEL staining based analysis; assay type: functional, organism-based
Mus musculus [33] = test: Inhibition of apoptosis in CCL-4 induced liver fibrosis C57/B6J mouse model at 100 mg/kg/day, ip measured after 72 hrs post last dose; assay type: functional, organism-based
Mus musculus [34] = test: Antifibrotic activity in CCL-4 induced liver fibrosis C57/B6J mouse model assessed as reduction in hydroxyproline level in liver at 100 mg/kg/day, ip measured after 72 hrs post last dose; assay type: functional, organism-based
Mus musculus [35] = test: Antifibrotic activity in CCL-4 induced liver fibrosis C57/B6J mouse model assessed as reduction in COL1A1 mRNA expression at 100 mg/kg/day, ip measured after 72 hrs post last dose by qRT-PCR analysis; assay type: functional, organism-based
Mus musculus [36] = test: Antifibrotic activity in CCL-4 induced liver fibrosis C57/B6J mouse model assessed as increase in HGF expression at 100 mg/kg/day, ip measured after 72 hrs post last dose by Western blot analysis; assay type: functional, organism-based
Mus musculus [37] = test: Antifibrotic activity in CCL-4 induced liver fibrosis C57/B6J mouse model assessed as reduction in miR-190a-5p expression in liver at 100 mg/kg/day, ip measured after 72 hrs post last dose by qRT-PCR analysis; assay type: functional, organism-based
Mus musculus [38] = test: Antifibrotic activity in CCL-4 induced liver fibrosis C57/B6J mouse model assessed as reduction in serum AST level at 100 mg/kg/day, ip measured after 72 hrs post last dose by ELISA; assay type: functional, organism-based
Mus musculus [39] = test: Antifibrotic activity in CCL-4 induced liver fibrosis C57/B6J mouse model assessed as reduction in serum ALT level at 100 mg/kg/day, ip measured after 72 hrs post last dose by ELISA; assay type: functional, organism-based
Mus musculus [40] = test: Antifibrotic activity in CCL-4 induced liver fibrosis C57/B6J mouse model assessed as increase in albumin level in serum at 100 mg/kg/day, ip measured after 72 hrs post last dose by ELISA; assay type: functional, organism-based

## CC1CN(CC2CCN(Cc3ccccc3)CC2)C(=O)N(c2cccc(C(=N)N)c2)C1.O=C(O)C(F)(F)F (stereo unspecified)
Hepatocyte [1]
  Activity: 64.46%
Hepatocyte [2]
  Activity: 18.6%
Hepatocyte [3]
  Activity: 13.59%
Hepatocyte [4]
  Activity: 3.35%
Hepatocyte [5]
  Activity: Active
Hepatocyte [6]
  Activity: Active
Hepatocyte [7]
  Activity: Active
Hepatocyte [8]
  Activity: Active

## Oc1ccc(/C=C/c2cc(O)cc(O)c2)cc1 [RESVERATROL]
Hepatocyte [9]
  Activity: 83.06%
Hepatocyte [10]
  Activity: Active
HepG2
  Activity: Active
Hepatocyte [11]
  Activity: 69.83%
Hepatocyte [12]
  Activity: 16.37%
Hepatocyte [13]
  Activity: 11.36%
Hepatocyte [14]
  Activity: 2.44%
Hepatocyte [15]
  Activity: 75.96%
Hepatocyte [16]
  Activity: 12.59%
Hepatocyte [17]
  Activity: 9.96%
Hepatocyte [18]
  Activity: 1.49%
Hepatocyte [19]
  Activity: 84.53%
Hepatocyte [20]
  Activity: 7.99%
Hepatocyte [21]
  Activity: 6.54%
Hepatocyte [22]
  Activity: 0.95%
Hepatocyte [23]
  inhibition: Active
Hepatocyte [24]
  inhibition: Active
Hepatocyte [25]
  Activity: 10.05%
Hepatocyte [26]
  Activity: 5.25%
Hepatocyte [27]
  Activity: 0.64%
Hepatocyte [28]
  Activity: 70.1%
Hepatocyte [29]
  Activity: 17.41%
Hepatocyte [30]
  Activity: 11.38%
Hepatocyte [31]
  Activity: 1.12%
Mus musculus [32]
  Activity: Active
Mus musculus [33]
  inhibition: Active
Mus musculus [34]
  Activity: Active
Mus musculus [35]
  Activity: Active
Mus musculus [36]
  Activity: Active
Mus musculus [37]
  Activity: Active
Mus musculus [38]
  Activity: Active
Mus musculus [39]
  Activity: Active
Mus musculus [40]
  Activity: Active
